Experimental data from ChEMBL document CHEMBL5608163, “Structure modification of anoplin for fighting resistant bacteria” (Eur J Med Chem, 2024).
Converted amounts (≈) assume the structure as drawn. Bridge positions count the residues as written; N and C are the ends. Square brackets hold non-standard residues; d marks the D form. Peptide text beside a SMILES is read from it. I, II: the chains in the order shown. * marks the point of attachment. ξ: configuration not given here. Lauroyl = CCCCCCCCCCCC(=O)*; Decanoyl = CCCCCCCCCC(=O)*; Octanoyl = CCCCCCCC(=O)*; Hexanoyl = CCCCCC(=O)*; ξK = NCCCCC(N)C(=O)O; Butyryl = CCCC(=O)*

Legend:
[1] = test system: Escherichia coli; assay: Antibacterial activity against Escherichia coli ATCC 25922 assessed as reduction in bacterial cell growth incubated for 16 to 24 hrs by CLSI-protocol based Mueller-Hinton Broth micro-dilution method; type: functional; details: time 16-24 hrs
[2] = test system: Erythrocyte; assay: Hemolytic activity in human erythrocyte incubated for 70 mins by absorbance based assay; type: toxicity, cell-based; details: 1.167 h
[3] = test system: Klebsiella pneumoniae; assay: Antibacterial activity against Klebsiella pneumoniae ATCC 700603 assessed as reduction in bacterial cell growth incubated for 16 to 24 hrs by CLSI-protocol based Mueller-Hinton Broth micro-dilution method; type: functional; details: time 16-24 hrs
[4] = test system: Staphylococcus aureus; assay: Antibacterial activity against Staphylococcus aureus ATCC 25923 assessed as reduction in bacterial cell growth incubated for 16 to 24 hrs by CLSI-protocol based Mueller-Hinton Broth micro-dilution method; type: functional; details: time 16-24 hrs
[5] = test system: Pseudomonas aeruginosa; assay: Antibacterial activity against Pseudomonas aeruginosa ATCC 27853 assessed as reduction in bacterial cell growth incubated for 16 to 24 hrs by CLSI-protocol based Mueller-Hinton Broth micro-dilution method; type: functional; details: time 16-24 hrs
[6] = test system: Bacillus subtilis; assay: Antibacterial activity against Bacillus subtilis ATCC 23857 assessed as reduction in bacterial cell growth incubated for 16 to 24 hrs by CLSI-protocol based Mueller-Hinton Broth micro-dilution method; type: functional; details: time 16-24 hrs

| Structure (SMILES) | MIC [1] | HC10 [2] | MIC [3] | MIC [4] | MIC [5] | MIC [6] |
| --- | --- | --- | --- | --- | --- | --- |
| CCCC(=O)NCC(=O)N[C@@H](CC(C)C)C(=O)N[C@@H](CC(C)C)C(=O)N[C@@H](CCCCN)C(=O)N[C@@H](CCCNC(=N)N)C(=O)N[C@H](C(=O)N[C@@H](CCCCN)C(=O)N[C@H](C(=O)N[C@@H](CC(C)C)C(=O)N[C@@H](CC(C)C)C(N)=O)[C@@H](C)O)[C@@H](C)CC (Butyryl-GLLKRIKTLL-NH2) | 256 µM (≈ 313 µg/mL) | > 256 µM | 256 µM (≈ 313 µg/mL) | 256 µM (≈ 313 µg/mL) | 64 µM (≈ 78.3 µg/mL) | 256 µM (≈ 313 µg/mL) |
| CCCCCCCCCC(=O)NCC(=O)N[C@@H](CC(C)C)C(=O)N[C@@H](CC(C)C)C(=O)N[C@@H](CCCCN)C(=O)N[C@@H](CCCNC(=N)N)C(=O)N[C@H](C(=O)N[C@@H](CCCCN)C(=O)N[C@H](C(=O)N[C@@H](CC(C)C)C(=O)N[C@@H](CC(C)C)C(N)=O)[C@@H](C)O)[C@@H](C)CC (Decanoyl-GLLKRIKTLL-NH2) | 16 µM (≈ 20.9 µg/mL) | 16.36 µM | 16 µM (≈ 20.9 µg/mL) | 8 µM (≈ 10.5 µg/mL) | 8 µM (≈ 10.5 µg/mL) | 8 µM (≈ 10.5 µg/mL) |
| CCCCCC(=O)NCC(=O)N[C@@H](CC(C)C)C(=O)N[C@@H](CC(C)C)C(=O)N[C@@H](CCCCN)C(=O)N[C@@H](CCCNC(=N)N)C(=O)N[C@H](C(=O)N[C@@H](CCCCN)C(=O)N[C@H](C(=O)N[C@@H](CC(C)C)C(=O)N[C@@H](CC(C)C)C(N)=O)[C@@H](C)O)[C@@H](C)CC (Hexanoyl-GLLKRIKTLL-NH2) | 128 µM (≈ 160 µg/mL) | > 256 µM | 128 µM (≈ 160 µg/mL) | 64 µM (≈ 80.1 µg/mL) | 16 µM (≈ 20 µg/mL) | 16 µM (≈ 20 µg/mL) |
| CCCC(=O)NCC(=O)N[C@@H](CC(C)C)C(=O)N[C@@H](CC(C)C)C(=O)N[C@@H](CCCCN)C(=O)N[C@@H](CCCNC(=N)N)C(=O)N[C@H](C(=O)N[C@@H](CCCCN)C(=O)N[C@H](C(=O)N[C@@H](CC(C)C)C(=O)N[C@@H](CC(C)C)C(=O)NCCCC[C@H](NC(=O)[C@H](CCCCNC(=O)[C@H](CC(C)C)NC(=O)[C@H](CC(C)C)NC(=O)[C@@H](NC(=O)[C@H](CCCCN)NC(=O)[C@@H](NC(=O)[C@H](CCCNC(=N)N)NC(=O)[C@H](CCCCN)NC(=O)[C@H](CC(C)C)NC(=O)[C@H](CC(C)C)NC(=O)CNC(=O)CCC)[C@@H](C)CC)[C@@H](C)O)NC(=O)[C@H](CC(C)C)NC(=O)[C@H](CC(C)C)NC(=O)[C@@H](NC(=O)[C@H](CCCCN)NC(=O)[C@@H](NC(=O)[C@H](CCCNC(=N)N)NC(=O)[C@H](CCCCN)NC(=O)[C@H](CC(C)C)NC(=O)[C@H](CC(C)C)NC(=O)CNC(=O)CCC)[C@@H](C)CC)[C@@H](C)O)C(N)=O)[C@@H](C)O)[C@@H](C)CC (I: Butyryl-GLLKRIKTLLKK-NH2 / II: Butyryl-GLLKRIKTLL / III: Butyryl-GLLKRIKTLL; amide I:11-III:C, I:12-II:C) |  | 3.18 µM |  |  |  |  |
| CCCC(=O)NCC(=O)N[C@@H](CC(C)C)C(=O)N[C@@H](CC(C)C)C(=O)N[C@@H](CCCCN)C(=O)N[C@@H](CCCNC(=N)N)C(=O)N[C@H](C(=O)N[C@@H](CCCCN)C(=O)N[C@H](C(=O)N[C@@H](CC(C)C)C(=O)N[C@@H](CC(C)C)C(=O)NCCCCC(NC(=O)[C@H](CC(C)C)NC(=O)[C@H](CC(C)C)NC(=O)[C@@H](NC(=O)[C@H](CCCCN)NC(=O)[C@@H](NC(=O)[C@H](CCCNC(=N)N)NC(=O)[C@H](CCCCN)NC(=O)[C@H](CC(C)C)NC(=O)[C@H](CC(C)C)NC(=O)CNC(=O)CCC)[C@@H](C)CC)[C@@H](C)O)C(N)=O)[C@@H](C)O)[C@@H](C)CC (stereo not given in full) (I: Butyryl-GLLKRIKTLL[ξK]-NH2 / II: Butyryl-GLLKRIKTLL; amide I:11-II:C) | 4 µM (≈ 10.2 µg/mL) | 27.61 µM | 8 µM (≈ 20.5 µg/mL) | 8 µM (≈ 20.5 µg/mL) | 8 µM (≈ 20.5 µg/mL) | 4 µM (≈ 10.2 µg/mL) |
| CCCCCCCCCC(=O)NCC(=O)N[C@@H](CC(C)C)C(=O)N[C@@H](CC(C)C)C(=O)N[C@@H](CCCCN)C(=O)N[C@@H](CCCNC(=N)N)C(=O)N[C@H](C(=O)N[C@@H](CCCCN)C(=O)N[C@H](C(=O)N[C@@H](CC(C)C)C(=O)N[C@@H](CC(C)C)C(=O)NCCCC[C@H](NC(=O)[C@H](CCCCNC(=O)[C@H](CC(C)C)NC(=O)[C@H](CC(C)C)NC(=O)[C@@H](NC(=O)[C@H](CCCCN)NC(=O)[C@@H](NC(=O)[C@H](CCCNC(=N)N)NC(=O)[C@H](CCCCN)NC(=O)[C@H](CC(C)C)NC(=O)[C@H](CC(C)C)NC(=O)CNC(=O)CCCCCCCCC)[C@@H](C)CC)[C@@H](C)O)NC(=O)[C@H](CC(C)C)NC(=O)[C@H](CC(C)C)NC(=O)[C@@H](NC(=O)[C@H](CCCCN)NC(=O)[C@@H](NC(=O)[C@H](CCCNC(=N)N)NC(=O)[C@H](CCCCN)NC(=O)[C@H](CC(C)C)NC(=O)[C@H](CC(C)C)NC(=O)CNC(=O)CCCCCCCCC)[C@@H](C)CC)[C@@H](C)O)C(N)=O)[C@@H](C)O)[C@@H](C)CC (I: Decanoyl-GLLKRIKTLLKK-NH2 / II: Decanoyl-GLLKRIKTLL / III: Decanoyl-GLLKRIKTLL; amide I:11-III:C, I:12-II:C) |  | 146.63 µM |  |  |  |  |
| CC[C@H](C)[C@H](NC(=O)[C@H](CCCNC(=N)N)NC(=O)[C@H](CCCCN)NC(=O)[C@H](CC(C)C)NC(=O)[C@H](CC(C)C)NC(=O)CN)C(=O)N[C@@H](CCCCN)C(=O)N[C@H](C(=O)N[C@@H](CC(C)C)C(=O)N[C@@H](CC(C)C)C(=O)NCCCC[C@H](NC(=O)[C@H](CCCCNC(=O)[C@H](CC(C)C)NC(=O)[C@H](CC(C)C)NC(=O)[C@@H](NC(=O)[C@H](CCCCN)NC(=O)[C@@H](NC(=O)[C@H](CCCNC(=N)N)NC(=O)[C@H](CCCCN)NC(=O)[C@H](CC(C)C)NC(=O)[C@H](CC(C)C)NC(=O)CN)[C@@H](C)CC)[C@@H](C)O)NC(=O)[C@H](CC(C)C)NC(=O)[C@H](CC(C)C)NC(=O)[C@@H](NC(=O)[C@H](CCCCN)NC(=O)[C@@H](NC(=O)[C@H](CCCNC(=N)N)NC(=O)[C@H](CCCCN)NC(=O)[C@H](CC(C)C)NC(=O)[C@H](CC(C)C)NC(=O)CN)[C@@H](C)CC)[C@@H](C)O)C(N)=O)[C@@H](C)O (I: H-GLLKRIKTLLKK-NH2 / II: H-GLLKRIKTLL / III: H-GLLKRIKTLL; amide I:11-III:C, I:12-II:C) |  | 2.53 µM |  |  |  |  |
| CCCCCC(=O)NCC(=O)N[C@@H](CC(C)C)C(=O)N[C@@H](CC(C)C)C(=O)N[C@@H](CCCCN)C(=O)N[C@@H](CCCNC(=N)N)C(=O)N[C@H](C(=O)N[C@@H](CCCCN)C(=O)N[C@H](C(=O)N[C@@H](CC(C)C)C(=O)N[C@@H](CC(C)C)C(=O)NCCCC[C@H](NC(=O)[C@H](CCCCNC(=O)[C@H](CC(C)C)NC(=O)[C@H](CC(C)C)NC(=O)[C@@H](NC(=O)[C@H](CCCCN)NC(=O)[C@@H](NC(=O)[C@H](CCCNC(=N)N)NC(=O)[C@H](CCCCN)NC(=O)[C@H](CC(C)C)NC(=O)[C@H](CC(C)C)NC(=O)CNC(=O)CCCCC)[C@@H](C)CC)[C@@H](C)O)NC(=O)[C@H](CC(C)C)NC(=O)[C@H](CC(C)C)NC(=O)[C@@H](NC(=O)[C@H](CCCCN)NC(=O)[C@@H](NC(=O)[C@H](CCCNC(=N)N)NC(=O)[C@H](CCCCN)NC(=O)[C@H](CC(C)C)NC(=O)[C@H](CC(C)C)NC(=O)CNC(=O)CCCCC)[C@@H](C)CC)[C@@H](C)O)C(N)=O)[C@@H](C)O)[C@@H](C)CC (I: Hexanoyl-GLLKRIKTLLKK-NH2 / II: Hexanoyl-GLLKRIKTLL / III: Hexanoyl-GLLKRIKTLL; amide I:11-III:C, I:12-II:C) |  | 0.71 µM |  |  |  |  |
| CCCCCCCCCCCC(=O)NCC(=O)N[C@@H](CC(C)C)C(=O)N[C@@H](CC(C)C)C(=O)N[C@@H](CCCCN)C(=O)N[C@@H](CCCNC(=N)N)C(=O)N[C@H](C(=O)N[C@@H](CCCCN)C(=O)N[C@H](C(=O)N[C@@H](CC(C)C)C(=O)N[C@@H](CC(C)C)C(=O)NCCCC[C@H](NC(=O)[C@H](CCCCNC(=O)[C@H](CC(C)C)NC(=O)[C@H](CC(C)C)NC(=O)[C@@H](NC(=O)[C@H](CCCCN)NC(=O)[C@@H](NC(=O)[C@H](CCCNC(=N)N)NC(=O)[C@H](CCCCN)NC(=O)[C@H](CC(C)C)NC(=O)[C@H](CC(C)C)NC(=O)CNC(=O)CCCCCCCCCCC)[C@@H](C)CC)[C@@H](C)O)NC(=O)[C@H](CC(C)C)NC(=O)[C@H](CC(C)C)NC(=O)[C@@H](NC(=O)[C@H](CCCCN)NC(=O)[C@@H](NC(=O)[C@H](CCCNC(=N)N)NC(=O)[C@H](CCCCN)NC(=O)[C@H](CC(C)C)NC(=O)[C@H](CC(C)C)NC(=O)CNC(=O)CCCCCCCCCCC)[C@@H](C)CC)[C@@H](C)O)C(N)=O)[C@@H](C)O)[C@@H](C)CC (I: Lauroyl-GLLKRIKTLLKK-NH2 / II: Lauroyl-GLLKRIKTLL / III: Lauroyl-GLLKRIKTLL; amide I:11-III:C, I:12-II:C) |  | 103.52 µM |  |  |  |  |
| CCCCCCCC(=O)NCC(=O)N[C@@H](CC(C)C)C(=O)N[C@@H](CC(C)C)C(=O)N[C@@H](CCCCN)C(=O)N[C@@H](CCCNC(=N)N)C(=O)N[C@H](C(=O)N[C@@H](CCCCN)C(=O)N[C@H](C(=O)N[C@@H](CC(C)C)C(=O)N[C@@H](CC(C)C)C(=O)NCCCC[C@H](NC(=O)[C@H](CCCCNC(=O)[C@H](CC(C)C)NC(=O)[C@H](CC(C)C)NC(=O)[C@@H](NC(=O)[C@H](CCCCN)NC(=O)[C@@H](NC(=O)[C@H](CCCNC(=N)N)NC(=O)[C@H](CCCCN)NC(=O)[C@H](CC(C)C)NC(=O)[C@H](CC(C)C)NC(=O)CNC(=O)CCCCCCC)[C@@H](C)CC)[C@@H](C)O)NC(=O)[C@H](CC(C)C)NC(=O)[C@H](CC(C)C)NC(=O)[C@@H](NC(=O)[C@H](CCCCN)NC(=O)[C@@H](NC(=O)[C@H](CCCNC(=N)N)NC(=O)[C@H](CCCCN)NC(=O)[C@H](CC(C)C)NC(=O)[C@H](CC(C)C)NC(=O)CNC(=O)CCCCCCC)[C@@H](C)CC)[C@@H](C)O)C(N)=O)[C@@H](C)O)[C@@H](C)CC (I: Octanoyl-GLLKRIKTLLKK-NH2 / II: Octanoyl-GLLKRIKTLL / III: Octanoyl-GLLKRIKTLL; amide I:11-III:C, I:12-II:C) |  | 59.73 µM |  |  |  |  |
